Results taken from US20210009583A1, “DEUTERATED IMIDAZOPYRIDINES” (UNIVERSITY OF NOTRE DAME DU LAC, priority 2018, published 2021).
Where “and” joins values, the source holds several entries; their conditions need not be identical. Identical values can stand only once. Like-named read-outs stand apart in the source and are kept apart here.

How the values were obtained:
[1] = Single dose pharmacokinetic study after oral administration, with and without ABT pre-dosing; format: in vivo, female Balb/c mice
Method: Based on MIC and acute toxicity data, two compounds ND-011176 and a deuterated analog ND-012101 were selected for evaluation in a single dose pharmacokinetic study (with and without pre-dosing of 1-Aminobenzotriazole, ABT) after oral administration to female Balb/c mice.
All animals were administered with the prepared test article via oral gavage at a target dose level of 200 mg/kg and at the dose volume detailed in the table 1 below. Each animal in Groups 2, 4, 6, 8 and 10 received a dose of ABT (100 mg/kg) via oral gavage two hours prior to Test Article administration.
Whole blood samples (0.1 mL each) were collected at the first time point via submandibular vein (SMV), or an appropriate peripheral vein if it was necessary. Up to 0.5 mL of whole blood was collected at terminal blood collection via intra cardiac puncture (ICP). For animals 1-3 from each of the 10 Groups, blood samples were collected at 0.5 and 4 hours after oral dosing. […]
The plasma samples and dose formulation samples were analyzed by the Testing Facility to determine the concentration of the test article using LC-MS/MS. PK parameters were estimated from the plasma concentration-time data by standard non-compartmental methods utilizing suitable analysis software.

TB infection = conditions: cited from earlier work
[2] = 5 h (mean of the "8" and "12" TP samples taken before euthanasia), PO 200 mg/kg + 100 mg/kg ABT
[3] = female, Balb/c, mouse, in vivo, po, 200 mg/kg
[4] = mouse, in vivo, female Balb/c mice, single oral dose 200 mg/kg, no ABT

**Q.** What does the source list for `Cc1ccc2nc(C)c(C(=O)NCc3ccc(C(F)(F)F)cc3)n2c1` [ND-011176]?
**A.** Drug plasma concentration, individual mice ([1]; 0.5 h, PO 200 mg/kg + 100 mg/kg ABT): 18100 ng/mL and 22600 ng/mL; Drug plasma concentration, individual mice ([1]; 0.5 h, PO 200 mg/kg, no ABT, 200 mg/kg): 5140 ng/mL and 7170 ng/mL; Drug plasma concentration, individual mice ([1]; 2 h, PO 200 mg/kg + 100 mg/kg ABT): 29300 ng/mL and 38200 ng/mL; Drug plasma concentration, individual mice ([1]; 2 h, PO 200 mg/kg, no ABT, 200 mg/kg): 5280 ng/mL and 4450 ng/mL; Drug plasma concentration, individual mice ([1]; 4 h, PO 200 mg/kg + 100 mg/kg ABT): 34700 ng/mL and 44900 ng/mL; Drug plasma concentration, individual mice ([1]; 4 h, PO 200 mg/kg, no ABT, 200 mg/kg): 432 ng/mL and 507 ng/mL; Drug plasma concentration, Average [1, 2]: 41617^^ ng/mL; Drug plasma concentration, individual mice [1, 2]: 39200^^ ng/mL and 41600^^ ng/mL and 44050^^ ng/mL; Drug plasma concentration, individual mice ([1]; 8 h, PO 200 mg/kg, no ABT, 200 mg/kg): 110 ng/mL and 25 ng/mL and 88.2 ng/mL; Drug plasma concentration, individual mice ([1]; 12 h, PO 200 mg/kg, no ABT, 200 mg/kg): BQL and 28.8 ng/mL; Drug plasma concentration, individual mice ([1]; 24 h, PO 200 mg/kg, no ABT, 200 mg/kg): BQL; % AUC Extrap ([1]; female Balb/c mice, single oral dose 200 mg/kg, no ABT): 0.00%; concentration at 0.5 h ([1]; female, Balb/c, mouse, in vivo, 0.5 h, PO 200 mg/kg + 100 mg/kg ABT, read-out: Drug plasma concentration, Average): 20100 ng/mL; concentration at 0.5 h ([1]; female, Balb/c, mouse, in vivo, 0.5 h, PO 200 mg/kg + 100 mg/kg ABT, read-out: Drug plasma concentration, individual mice): 19600 ng/mL; concentration at 2 h ([1]; female, Balb/c, mouse, in vivo, 2 h, PO 200 mg/kg + 100 mg/kg ABT, read-out: Drug plasma concentration, Average): 34600 ng/mL; concentration at 2 h ([1]; female, Balb/c, mouse, in vivo, 2 h, PO 200 mg/kg + 100 mg/kg ABT, read-out: Drug plasma concentration, individual mice): 36400 ng/mL; concentration at 4 h ([1]; female, Balb/c, mouse, in vivo, 4 h, PO 200 mg/kg + 100 mg/kg ABT, read-out: Drug plasma concentration, Average): 44800 ng/mL; concentration at 4 h ([1]; female, Balb/c, mouse, in vivo, 4 h, PO 200 mg/kg + 100 mg/kg ABT, read-out: Drug plasma concentration, individual mice): 54800 ng/mL; AUC(0-x)/Dose [1, 3]: 78.4 ng·h/mL/mg/kg; AUC(0-∞)/Dose [1, 3]: 78.4 ng·h/mL/mg/kg; Cmax/Dose [1, 3]: 34 ng/mL/mg/kg; concentration at 0.5 h ([1]; female, Balb/c, mouse, in vivo, po, 200 mg/kg, 0.5 h, PO 200 mg/kg, no ABT, read-out: Drug plasma concentration, Average): 6730 ng/mL; concentration at 0.5 h ([1]; female, Balb/c, mouse, in vivo, po, 200 mg/kg, 0.5 h, PO 200 mg/kg, no ABT, read-out: Drug plasma concentration, individual mice): 7880 ng/mL; concentration at 2 h ([1]; female, Balb/c, mouse, in vivo, po, 200 mg/kg, 2 h, PO 200 mg/kg, no ABT, read-out: Drug plasma concentration, Average): 6100 ng/mL; concentration at 2 h ([1]; female, Balb/c, mouse, in vivo, po, 200 mg/kg, 2 h, PO 200 mg/kg, no ABT, read-out: Drug plasma concentration, individual mice): 8580 ng/mL; concentration at 4 h ([1]; female, Balb/c, mouse, in vivo, po, 200 mg/kg, 4 h, PO 200 mg/kg, no ABT, read-out: Drug plasma concentration, Average): 600 ng/mL; concentration at 4 h ([1]; female, Balb/c, mouse, in vivo, po, 200 mg/kg, 4 h, PO 200 mg/kg, no ABT, read-out: Drug plasma concentration, individual mice): 861 ng/mL; concentration at 8 h ([1]; female, Balb/c, mouse, in vivo, po, 200 mg/kg, 8 h, PO 200 mg/kg, no ABT, read-out: Drug plasma concentration, Average): 74 ng/mL; concentration at 12 h ([1]; female, Balb/c, mouse, in vivo, po, 200 mg/kg, 12 h, PO 200 mg/kg, no ABT, read-out: Drug plasma concentration, Average): 34 ng/mL; concentration at 12 h ([1]; female, Balb/c, mouse, in vivo, po, 200 mg/kg, 12 h, PO 200 mg/kg, no ABT, read-out: Drug plasma concentration, individual mice): 40.1 ng/mL; concentration at 24 h ([1]; female, Balb/c, mouse, in vivo, po, 200 mg/kg, 24 h, PO 200 mg/kg, no ABT, read-out: Drug plasma concentration, Average): 8 ng/mL; concentration at 24 h ([1]; female, Balb/c, mouse, in vivo, po, 200 mg/kg, 24 h, PO 200 mg/kg, no ABT, read-out: Drug plasma concentration, individual mice): 8.09 ng/mL; Cmax ([1]; mouse, in vivo, female Balb/c mice, single oral dose 200 mg/kg, ABT 100 mg/kg PO 2 h before, manually added from the TA concentration data): 44800 ng/mL; AUC(0-inf) [1, 4]: 15700 ng·h/mL; Cmax [1, 4]: 6730 ng/mL; Tmax [1, 4]: 0.5 h; half-life [1, 4]: 1.7 h; AUC ([1]; mouse, in vivo, female Balb/c mice, single oral dose 200 mg/kg, no ABT, read-out: AUC(0-x)): 15700 ng·h/mL; cfu reduction with respect to non-treated controls (TB infection; 300 mg/kg): 2 log cfu; cfu reduction with respect to non-treated controls (TB infection; 500 mg/kg): 2 log cfu; Signs of toxicity (TB infection; any of the administered doses): No signs of toxicity
